Data as given in publication PMC4048165, “Reaction Kinetics for the Biocatalytic Conversion of Phenazine-1-Carboxylic Acid to 2-Hydroxyphenazine” (PLoS ONE, 2014).

Biological target: T1, PhzO (Pseudomonas chlororaphis, UniProt E3UVD3)
T1 construct: full-length phzO (1476-bp PCR fragment, about 491 residues) in pET28a, 6-His tag, E. coli BL21, Ni-NTA purified
T1 sequence (E3UVD3 1-491): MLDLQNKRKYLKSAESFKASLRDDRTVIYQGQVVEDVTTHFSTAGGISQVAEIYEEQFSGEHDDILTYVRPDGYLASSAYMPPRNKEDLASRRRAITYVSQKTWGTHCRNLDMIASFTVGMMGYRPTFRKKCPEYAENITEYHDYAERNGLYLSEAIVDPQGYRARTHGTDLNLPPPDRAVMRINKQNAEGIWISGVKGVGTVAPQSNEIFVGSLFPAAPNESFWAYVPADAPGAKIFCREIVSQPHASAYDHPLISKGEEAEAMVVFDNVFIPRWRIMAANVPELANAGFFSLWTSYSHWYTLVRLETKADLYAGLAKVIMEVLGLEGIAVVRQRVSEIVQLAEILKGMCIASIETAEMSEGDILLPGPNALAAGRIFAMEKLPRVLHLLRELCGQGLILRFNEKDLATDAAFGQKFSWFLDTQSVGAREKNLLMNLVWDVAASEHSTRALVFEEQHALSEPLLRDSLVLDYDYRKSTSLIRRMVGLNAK
Experiment: HPLC detection of 2-OH-PCA and 2-OH-PHZ
Assay type: biochemical
Conditions: NADP(H), 1 mM Fe3+, PCA 200 mg/L, 0.1 M Tris-HCl; results call the enzyme purified, methods describe crude E. coli extract

O=C(O)c1cccc2nc3ccccc3nc12 [PCA, phenazine-1-carboxylic acid]
HPLC detection of 2-OH-PCA and 2-OH-PHZ: PhzO was sufficient to hydroxylate PCA to produce 2-OH-PHZ in the presence of NADP(H)
